We go through 24 compounds from ChEMBL document CHEMBL1201862, “PubChem BioAssay data set” (2004).

Some test systems named below: DLD-1; DMS-114; HOP-18; KM-20L2; LXFL 529; M19-MEL; SNB-78; RXF 631; XF498.
What all share (assay): DTP human tumour cell line panel, 48 h

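The compound was tested at five concentrations on cells cultured in 96-well plates, with a 48-hour exposure period. Abbreviation: GI50, concentration required for 50% inhibition of growth.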 Active and inactive are the calls of the source. Cut-off read from the data, not from the text of the source: active = GI50 up to about 1.1 µM and inactive = higher. Where a SMILES comes first, the peptide text is derived from it. [ ]: non-standard residue; d: D form. The star is where a group is joined. NMeF = CN[CH](Cc1ccccc1)C(=O)O; NMeV = CN[CH](C(=O)O)C(C)C; Boc = CC(C)(C)OC(=O)*; OBn = c1ccc(CO*)cc1

Take `CCC1(CC)C(=O)NC(=O)NC1=S`: the GI50 in the experiment with DLD-1, with DMS-114, in the experiment on HOP-18, with KM-20L2, in the experiment with LXFL 529 and in the experiment on M19-MEL was > 100 µM (inactive) throughout. In the experiment with SNB-78, the GI50 (as a rule, the concentration at which growth is held to half of that of the control) was > 100 µM (inactive).

Consider `N=C(N)NS(=O)(=O)c1ccc(NC(=O)c2ccc(Cl)c3c(Nc4ccc(S(=O)(=O)N=C(N)N)cc4)c4ccccc4nc23)cc1`, for which the GI50 is 49.2 µM (inactive) in the experiment on DLD-1; > 100 µM (inactive) in the experiment on DMS-114; 68.1 µM (inactive) in the experiment with HOP-18; > 100 µM (inactive) in the experiment with KM-20L2; 52.8 µM (inactive) with LXFL 529; 49.8 µM (inactive) in the experiment on M19-MEL. In addition, the GI50 in the experiment with RXF 631 was > 100 µM (inactive); in the experiment with SNB-78, 45 µM (inactive).

Take `COc1ccc(NC(=O)CC2SC(Nc3ccc(Cl)cc3C)=NC2=O)c([N+](=O)[O-])c1` (configuration not stated): the GI50 with DLD-1, in the experiment on DMS-114, in the experiment with KM-20L2, in the experiment on LXFL 529, with M19-MEL and in the experiment with RXF 631 was > 100 µM (inactive) in each case. The GI50 with SNB-78 was > 100 µM (inactive).

For the compound `c1ccc(CNn2nnc3ccccc32)cc1`, the GI50 with DLD-1, in the experiment with DMS-114, in the experiment with KM-20L2, in the experiment with LXFL 529, with M19-MEL and in the experiment on SNB-78 was > 100 µM (inactive) each time. For the same compound, in the experiment with XF498, the GI50 was > 100 µM (inactive).

For `O=c1c2c(c1=O)-c1ccccc1CN2`, the GI50 in the experiment with DLD-1, with DMS-114, with KM-20L2, in the experiment with LXFL 529, in the experiment with M19-MEL and in the experiment on SNB-78 was > 100 µM (inactive) each time. Besides, the GI50 in the experiment on XF498 is 20.6 µM (inactive).

For the compound `COc1ccc([C@@H]2CC(=O)NCCCNCCCCNCCCN2)cc1`, the GI50 in the experiment on DLD-1 is > 100 µM (inactive); in the experiment on DMS-114, > 100 µM (inactive); with HOP-18, 59.6 µM (inactive); in the experiment on KM-20L2 it was > 100 µM (inactive); in the experiment with LXFL 529, > 100 µM (inactive); in the experiment on M19-MEL, > 100 µM (inactive). Also, the GI50 with SNB-78 and with XF498 was > 100 µM (inactive) in each case.

With `O=C(Nc1ccc(Cl)cc1C(F)(F)F)C(=O)C1CCCS1(=O)=O` (configuration not stated), the GI50 in the experiment on DLD-1, in the experiment with DMS-114, with HOP-18, in the experiment with KM-20L2, with LXFL 529 and in the experiment with M19-MEL was > 100 µM (inactive) throughout. Besides, the GI50 in the experiment on SNB-78 and in the experiment on XF498 was > 100 µM (inactive) in each case.

For `NC1=NS(=O)(=O)Nc2nc(-c3ccc(Cl)cc3)[nH]c21`, the GI50 with DLD-1, with DMS-114, with HOP-18, with KM-20L2, in the experiment on LXFL 529 and with M19-MEL was > 100 µM (inactive) throughout.

`[O-][n+]1c2c([n+]([O-])c3ccccc31)CCCCCCCCCC2`: the GI50 with DLD-1 is > 100 µM (inactive); with KM-20L2 it was 17.5 µM (inactive); in the experiment on LXFL 529, 68.1 µM (inactive); with M19-MEL, > 100 µM (inactive); with SNB-78, > 100 µM (inactive); in the experiment with XF498, > 100 µM (inactive).

As to `Cc1cn(C2OC(C)(CO)C(O)C2O)c(=O)[nH]c1=O` (configuration not stated), the GI50 in the experiment on DLD-1, in the experiment with DMS-114, with HOP-18, in the experiment with LXFL 529 and in the experiment on M19-MEL was > 100 µM (inactive) each time.

Regarding `O=P1(Oc2ccccc2)C(c2ccccc2)C(c2ccccc2)=NN1c1ccccc1` (configuration not stated), the GI50 in the experiment with DLD-1 was 18.3 µM (inactive); with DMS-114, 19.5 µM (inactive); in the experiment on HOP-18, 44.1 µM (inactive); with KM-20L2, 20.7 µM (inactive); in the experiment on LXFL 529, 19.8 µM (inactive); in the experiment on M19-MEL it was 23.1 µM (inactive). Also, the results for the GI50 in the experiment on RXF 631, in the experiment on SNB-78 and with XF498 were 35.4 µM (inactive), 46.5 µM (inactive) and 43.2 µM (inactive), respectively.

Turning to `O=C(O)c1ccc(C2C3C=CC(C3)C2[N+](=O)[O-])cc1` (configuration not stated), the GI50 in the experiment on DLD-1, in the experiment with DMS-114, in the experiment on KM-20L2, in the experiment with LXFL 529, in the experiment with M19-MEL and in the experiment on RXF 631 was > 100 µM (inactive) each time. The GI50 in the experiment on SNB-78 and in the experiment on XF498 was > 100 µM (inactive) each time.

Take `C=C(NC(=O)C(=C)NC(=O)c1csc(C2=NC3c4csc(n4)C4NC(=O)c5csc(n5)C(C(C)(O)C(C)O)NC(=O)C5CSC(=N5)/C(=C/C)NC(=O)C(C(C)O)NC(=O)c5csc(n5)C3(CC2)NC(=O)C(C)NC(=O)C(=C)NC(=O)C(C)NC(=O)C(C(C)CC)NC2C=Cc3c(C(C)O)cc(nc3C2O)C(=O)OC4C)n1)C(N)=O` (configuration not stated): the GI50 was 1.76 µM (inactive) with DLD-1; 2.72 µM (inactive) with DMS-114; 2.72 µM (inactive) in the experiment on HOP-18; 2.84 µM (inactive) in the experiment with KM-20L2; 0.449 µM (active) in the experiment on LXFL 529; 1.37 µM (inactive) with M19-MEL. The GI50 with RXF 631 is 3.61 µM (inactive); with SNB-78 it was 2.54 µM (inactive); in the experiment on XF498 it was 0.355 µM (active).

`Cc1c(C)c([N+](=O)[O-])c2c(c1N)C(=O)c1ccccc1C2=O`: the GI50 with DLD-1 is > 100 µM (inactive); in the experiment with DMS-114, > 100 µM (inactive); with HOP-18, 33 µM (inactive); in the experiment with KM-20L2 it was > 100 µM (inactive); in the experiment on LXFL 529 it was > 100 µM (inactive); with M19-MEL, 90.8 µM (inactive). The GI50 in the experiment on SNB-78 and in the experiment with XF498 was > 100 µM (inactive) in each case.

Take `C[C@H]1CC(=O)C2=CCCC3(SCCCS3)[C@@H]2[C@H]1CO`: the GI50 is > 100 µM (inactive) in the experiment on DLD-1; > 100 µM (inactive) with DMS-114; > 100 µM (inactive) with HOP-18; > 100 µM (inactive) with LXFL 529; 78.5 µM (inactive) with M19-MEL; > 100 µM (inactive) in the experiment with RXF 631. The GI50 in the experiment on XF498 was > 100 µM (inactive).

Turning to `CC(=O)O[C@]12CCCC1C1(O)C(O)CCCC12` (some centres not stated), the GI50 in the experiment with DMS-114, in the experiment with HOP-18, in the experiment on KM-20L2, in the experiment with LXFL 529, in the experiment with M19-MEL and with SNB-78 was > 100 µM (inactive) each time. The GI50 in the experiment on XF498 was > 100 µM (inactive).

`O=C1C2c3[nH]c4ccccc4c3C3CCCCC3C2C(=O)N1c1ccccc1` (configuration not stated): the GI50 with DLD-1 was > 100 µM (inactive); in the experiment on DMS-114, > 100 µM (inactive); in the experiment on HOP-18 it was 37.2 µM (inactive); with LXFL 529 it was > 100 µM (inactive); in the experiment with M19-MEL, > 100 µM (inactive); with RXF 631, > 100 µM (inactive). Moreover, the GI50 with SNB-78 was 38.3 µM (inactive).

As for `Clc1cc(Cl)c2n[se]nc2c1`, the GI50 in the experiment with HOP-18, with KM-20L2, with M19-MEL, with RXF 631 and in the experiment with SNB-78 was > 100 µM (inactive) in each case.

For the compound `N#C/C(=C\c1ccc2ccccc2c1)C(=O)c1ccccc1`, the GI50 was > 100 µM (inactive) with DLD-1; > 100 µM (inactive) in the experiment on DMS-114; > 100 µM (inactive) in the experiment with HOP-18; > 100 µM (inactive) with KM-20L2; > 86.7 µM (inactive) with LXFL 529; > 87.9 µM (inactive) in the experiment with M19-MEL. In addition, the GI50 in the experiment with SNB-78 and in the experiment on XF498 was > 100 µM (inactive) throughout.

Regarding `Cc1nc(-c2cccnc2)sc1C(=O)/C=C/c1ccc(Cl)cc1Cl`, the GI50 in the experiment on DLD-1 is > 100 µM (inactive); in the experiment with DMS-114, 84.3 µM (inactive); in the experiment with HOP-18, > 100 µM (inactive); in the experiment on KM-20L2, > 100 µM (inactive); in the experiment with M19-MEL, > 100 µM (inactive); with SNB-78 it was > 100 µM (inactive).

As for `O=C(OC1CCC(=C2SCCCS2)[C@H]1C1SCCCS1)c1ccccc1` (some centres not stated), the GI50 is > 100 µM (inactive) in the experiment on DLD-1; 89.5 µM (inactive) in the experiment with DMS-114; > 100 µM (inactive) in the experiment with KM-20L2; > 100 µM (inactive) in the experiment on LXFL 529; > 100 µM (inactive) in the experiment on M19-MEL; > 100 µM (inactive) with RXF 631.

For `O=c1ncccn1C1OC(CO)C(O)C1O` (configuration not stated), the GI50 with DLD-1, with DMS-114, with HOP-18, in the experiment on KM-20L2, in the experiment on LXFL 529 and in the experiment on M19-MEL was > 100 µM (inactive) in each case. For the same compound, the GI50 in the experiment with SNB-78 is > 100 µM (inactive).

On to `CC(C)C(NC(=O)OC(C)(C)C)C(=O)N(C)C(Cc1ccccc1)C(=O)N(C)C(C(=O)N(C)C(C(=O)OCc1ccccc1)C(C)C)C(C)C` (configuration not stated) (Boc-V[NMeF][NMeV][NMeV]-OBn; configuration not given here), for which the GI50 is 62.5 µM (inactive) with DMS-114; > 100 µM (inactive) in the experiment on KM-20L2; 7.6 µM (inactive) in the experiment on LXFL 529; > 100 µM (inactive) in the experiment with M19-MEL; 19.4 µM (inactive) in the experiment on XF498.

For the compound `C[C@@](O)(/C=C/[C@H]1CC=CC(=O)O1)[C@@H](C[C@@H](O)\C=C/C=C\C=C\CO)OP(=O)(O)O` [FOSTRIECIN SODIUM], the GI50 in the experiment with DLD-1 is 13.2 µM (inactive); in the experiment with DMS-114, 13 µM (inactive); with KM-20L2, 1.03 µM (active); in the experiment with M19-MEL it was 4.17 µM (inactive); with SNB-78, 15 µM (inactive); with XF498, 52.5 µM (inactive).
